Patent publication US20210340130A1, “Compositions and methods for treating attention deficit disorders” (priority 2016, published 2021)

Legend:
Rat (Wistar) = experiment: Novel object recognition memory; type: in vivo; conditions: for Minimum Effective Dose: IP
Method: Additional Novel Object Recognition behavioral model studies were conducted to further elucidate the anti-ADHD activities of CX717 and CX1739. Rats were habituated to a test box for two 5 minute sessions on consecutive days. Each test session consisted of two phases: in the first phase (“sample period”), two identical objects (A1 and A2) were placed in the far corners of the box, and the rats were allowed to explore the objects. After a 24 hour delay, rats were re-introduced to the arena (“test period”) now containing a third identical copy of the familiar object (A3) and a new object (B), placed in the same locations as in the first phase, and the total time spent exploring each of the objects was determined over a 3-min duration. For CX717 drug treatment, rats were dosed 30 min prior to each sample session with either 0.1, 0.3, 1.0 mg/kg CX717 (p.o.); vehicle (0.5% methylcellulose, p.o.) or 0.9 mg/kg Aricept (E2020, i.p.). The exploration times for the full 3-min were calculated and expressed as the discrimination index, d1, defined as the absolute difference in time spent exploring the novel object minus the familiar object.
For CX1739 Male Wistar rats were assessed for cognitive ability in a test apparatus comprising an open-field arena placed in a sound-attenuated room under dimmed lighting. Rat exploration and activity were captured by a digital camera, and viewed on a monitor in an adjoining area. Following a 5-minute habituation period, each animal was placed in the test arena in the presence of two identical objects (plastic shapes) and the time spent actively exploring the objects during a 5-minute test period (T1) was recorded. After 24 hours, each rat was again placed in the test arena for 5 minutes (T2) in the presence of one familiar object and one novel object, and the time spent exploring both objects was recorded. The Recognition Index was calculated as the percentage of total exploration time spent exploring the novel object during the retention session (T2), which provides the primary measure of cognitive function in this assay.
The Novel object recognition (NOR) paradigm is a rodent model of recognition learning memory retrieval and takes advantage of the spontaneous behavior of rodents to investigate a novel object compared with a familiar object. NOR has been employed extensively to indicate cognition-enhancing properties of drug candidates, predictive of therapeutic efficacy of positively-assaying drugs for reducing ADHD symptoms in humans.

Rat (SD) = experiment: Radial arm maze - spatial memory; type: in vivo; conditions: for Minimum Effective Dose: IP
Method: Yet another animal model for evaluating ampakine drug activity employed herein is the well known and widely accepted Radial Arm Maze model. CX717 was tested for its ability to improve the performance of aged rats in an eight-arm radial maze using a cross-over design study. This behavioral test uses a standard eight-arm radial maze wherein five arms were open and baited with food pellets for the first morning session. Each animal was allowed to consume the food rewards present in the open arms and was then returned to its home cage. Six hours later animals were returned to the maze, wherein all eight-arms were open, but only the three arms previously closed contained food rewards. Scoring was based on the number of correct choices before an incorrect choice (re-entering an arm that was visited during the morning acquisition session) was made and on the total number of incorrect choices made before all three of the still baited arms were visited. CX717 was tested at six doses (0.03, 0.1, 0.3, 1, 3 and 10 mg/kg in hydroxypropyl β-cyclodextran, i.p.), administered 30 min prior to the start of the morning acquisition session and no drug was given prior to the second trial six hours later.
For CX1739 male Sprague-Dawley rats were trained to perform the win shift assay on the radial arm maze for approximately 10 weeks prior to the study. On each day of training and testing, each rat completed one trial, split into a sample phase and a test phase. During the sample phase, the rat was placed on a 12-arm radial arm maze surrounded by visual cues. Food wells at the end of each arm were baited with sucrose pellets but access to three arms, selected randomly, was blocked with a clear plastic divider at the arm entrance. The rat was allowed 5 minutes to search the maze and collect the available food pellets before being removed from the maze. Fifteen minutes later the rat was returned to the maze for the test phase of the trial. During the test phase, the rat was allowed access to all 12 arms of the maze but only the arms that had been blocked previously were baited with sucrose pellets. The rat was allowed 3 minutes to collect the available food pellets before being removed from the maze. On test days, rats were injected with CX1739 (0.03-1.0 mg/kg, i.p.) or vehicle immediately following the sample phase of the study. The primary dependent measure was the cumulative number of arm entries prior to entering the first, second, and third baited arm during the test phase.

Mouse (CD1) = experiment: Amphetamine-stimulated locomotion in mice; type: in vivo; conditions: for Minimum Effective Dose: IP, dose range 5.6-30 mg/kg; for amphetamine-stimulated locomotion, pre-treatment: amphetamine 2 mg/kg i.p.
Method: Effects of exemplary low impact ampakines were also evaluated in mice for the ability to inhibit amphetamine-stimulated locomotor activity. Mice were placed in the locomotor chamber for 20 min to habituate, removed, injected with either vehicle or anti-ADHD ampakine (CX717), and 5 min later injected with 2 mg/kg i.p. Amphetamine. Mice were returned to the locomotor chamber 10 min later, and their activity measured for a further 15 min. In related studies, adult male CD1 mice or male Sprague-Dawley rats were acclimated in a test chamber for 20 minutes removed and dosed i.p. (mice) or orally (rats) with CX1739, vehicle, or a reference compound. Five (mice) or 10 (rats) were then injected with amphetamine (2 mg/kg, i.p.) or saline vehicle and were returned to the activity test chamber.

64 GPCRs = experiment: Cell-based functional GPCR assays (Table 4.2.2-1); conditions: agonist at 30 μM, antagonist at 37.5 μM; 64 functional GPCR assays
Method: Additional studies involving G-protein coupled receptor assays were conducted for CX1739 to further illustrate the scope and flexibility of binding activity profiling available for ampakine screening according to the invention. CX1739 was evaluated in a second broad in vitro pharmacology screen, comprising cell-based functional G-protein coupled receptor assays for 64 GPCRs, identified in Table 4.2.2-1 below.

[1] = target: cytosolic testosterone receptor (Homo sapiens, UniProt P10275); experiment: Radioligand binding, testosterone receptor; conditions: read-out: inhibition of binding of a reference ligand
[2] = tested on: non-selective alpha1 adrenergic receptor; experiment: Radioligand binding, alpha1 adrenergic receptor; conditions: 100 μM
[3] = aged rats, eight-arm maze, 0.03-10 mg/kg i.p.

cytosolic testosterone receptor, sequence (P10275 whole entry): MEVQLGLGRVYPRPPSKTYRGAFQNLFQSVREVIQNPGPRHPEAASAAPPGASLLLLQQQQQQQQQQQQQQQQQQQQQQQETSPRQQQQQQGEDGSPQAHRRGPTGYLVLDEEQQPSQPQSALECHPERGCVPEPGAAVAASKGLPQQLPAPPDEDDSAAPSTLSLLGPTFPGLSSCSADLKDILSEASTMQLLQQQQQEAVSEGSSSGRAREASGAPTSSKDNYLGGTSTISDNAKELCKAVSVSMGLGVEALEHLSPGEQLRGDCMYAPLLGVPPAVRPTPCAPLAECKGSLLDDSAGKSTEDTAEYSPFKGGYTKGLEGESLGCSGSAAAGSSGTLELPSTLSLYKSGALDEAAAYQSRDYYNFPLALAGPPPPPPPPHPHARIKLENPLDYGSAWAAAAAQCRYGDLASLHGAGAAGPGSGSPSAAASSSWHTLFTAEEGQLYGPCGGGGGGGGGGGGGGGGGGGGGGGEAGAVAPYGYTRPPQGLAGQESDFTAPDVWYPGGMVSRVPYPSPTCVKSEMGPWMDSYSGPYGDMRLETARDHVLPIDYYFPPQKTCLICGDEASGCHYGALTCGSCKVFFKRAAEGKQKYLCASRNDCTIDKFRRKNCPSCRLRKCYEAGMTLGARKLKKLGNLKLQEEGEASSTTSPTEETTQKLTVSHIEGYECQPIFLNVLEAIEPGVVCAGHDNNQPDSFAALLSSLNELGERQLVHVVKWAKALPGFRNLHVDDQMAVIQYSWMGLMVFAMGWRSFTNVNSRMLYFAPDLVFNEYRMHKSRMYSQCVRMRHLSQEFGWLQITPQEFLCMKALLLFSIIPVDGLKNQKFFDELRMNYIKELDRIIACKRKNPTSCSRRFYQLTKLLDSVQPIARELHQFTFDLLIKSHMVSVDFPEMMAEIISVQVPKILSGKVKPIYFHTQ

Structure (SMILES)	d1 scores (discrimination index) (Rat (Wistar); 0.3 mg/kg, compared to vehicle)	Minimum Effective Dose (Rat (Wistar)) [mg/kg]	Minimum Effective Dose (Rat (SD)) [mg/kg]	doses with highly significant difference in performance between drug and vehicle days (Rat (SD); Kruskal-Wallace P=0.008, Wilcoxon Signed Rank Test) [mg/kg]	number of correct choices (before making an error) in the second maze session (Rat (SD); [3])	total number of errors (Rat (SD); [3])	Minimum Effective Dose (Mouse (CD1)) [mg/kg]	amphetamine-stimulated locomotion, pre-treatment (Mouse (CD1))	preference for novel object exploration versus positive control (Rat (Wistar); 0.03 mg/kg)	preference for exploring the novel object (Rat (Wistar); rat, in vivo)	entries before finding the third arm with a food pellet reward (Rat (SD); 0.3 mg/kg, 12-arm maze, p<0.05)	optimal dose (dose producing the maximal effect) in the maze assay (Rat (SD); ip) [mg/kg]	amphetamine-stimulated locomotion (Mouse (CD1); 30 mg/kg ip)	GPCR agonist and antagonist activity (64 GPCRs)	inhibition at 100 µM [1] [%]	inhibition of binding of a reference ligand [2] [%]
O=C(c1ccc2nonc2c1)N1CCOCC1 [CX717, 1-(benzofurazan-5-ylcarbonyl)morpholine]	significant increase	0.3	0.3	≥ 0.3	dose-dependent increase	decrease	18	inhibited amphetamine-stimulated locomotion in mice in a dose-dependent manner	–	–	–	–	–	–	–	–
CN(C(=O)c1ccc2nonc2c1)C1CCOCC1 [CX1739, N-Methyl-N-tetrahydro-2H-pyran-4-yl-[2,1,3]-benzoxadiazole-5-carboxamide]	–	0.03	0.3	–	–	–	30	inhibited amphetamine-stimulated locomotion in mice in a dose-dependent manner	comparable to that of 3 mg/kg galantamine	significant increase	significantly fewer entries	0.3	significant decrease	did not exhibit any significant agonist or antagonist activity	64	67
